We go through 19 molecules from patent US7932270B2 (Cytokinetics, Inc., priority 2006, dated 2011).

Structures are written as SMILES.

T1 sequence (P02607 2-151): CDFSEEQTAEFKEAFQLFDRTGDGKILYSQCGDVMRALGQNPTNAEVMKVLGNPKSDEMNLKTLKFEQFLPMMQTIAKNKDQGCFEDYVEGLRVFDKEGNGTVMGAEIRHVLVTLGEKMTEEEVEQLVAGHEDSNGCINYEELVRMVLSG
T1 sequence (P10587 84-789): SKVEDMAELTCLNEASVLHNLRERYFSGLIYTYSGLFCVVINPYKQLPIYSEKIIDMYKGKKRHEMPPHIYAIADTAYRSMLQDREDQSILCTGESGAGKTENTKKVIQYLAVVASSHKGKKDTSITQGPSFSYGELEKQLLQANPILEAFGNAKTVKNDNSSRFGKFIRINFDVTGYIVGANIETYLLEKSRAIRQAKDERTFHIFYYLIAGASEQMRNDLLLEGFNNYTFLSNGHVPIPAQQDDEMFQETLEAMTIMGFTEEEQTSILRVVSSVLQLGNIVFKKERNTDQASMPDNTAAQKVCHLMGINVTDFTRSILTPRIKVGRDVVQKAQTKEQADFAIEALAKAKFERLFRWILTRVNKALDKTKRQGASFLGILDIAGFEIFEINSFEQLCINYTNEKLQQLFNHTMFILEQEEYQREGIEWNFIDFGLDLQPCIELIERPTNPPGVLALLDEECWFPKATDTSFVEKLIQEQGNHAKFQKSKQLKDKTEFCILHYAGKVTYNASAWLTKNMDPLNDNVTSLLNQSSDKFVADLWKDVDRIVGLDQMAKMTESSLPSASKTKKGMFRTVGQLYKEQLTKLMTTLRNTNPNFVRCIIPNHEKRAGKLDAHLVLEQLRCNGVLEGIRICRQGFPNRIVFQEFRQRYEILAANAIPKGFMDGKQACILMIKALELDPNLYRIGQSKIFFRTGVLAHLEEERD

The test has as its target T1, chicken gizzard smooth muscle myosin subfragment-1 chemically crosslinked to cardiac or skeletal actin (Gallus gallus, UniProt P10587).
T1 construct: chicken gizzard smooth muscle myosin subfragment-1; from tissue; host or cells: chicken gizzard
Put plainly: Smooth muscle myosin ATPase dose response assay (pyruvate kinase/horseradish peroxidase/pyruvate oxidase-coupled, amplex red fluorescence). Type of test: biochemical. Particulars: read-out: IC50 Arithmetic Mean. In outline: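 Chicken gizzard myosin S1 crosslinked to cardiac or skeletal actin, titrated to a set hydrolysis rate; 0.15 mM ATP, 12 mM PIPES pH 7.00, 100 mM KCl, 2 mM MgCl2. Pyruvate kinase/pyruvate oxidase/HRP coupling with amplex red fluorescence; IC50 from 4-parameter fit.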
By IC50 is commonly meant the point on the concentration scale where inhibition reaches its midpoint. Consider `CC(=O)N1CCNC[C@@H]1CNC(=O)c1ccc(-c2ccccc2C#N)nc1NCCc1cccc(F)c1` [N-[((2R)-1-acetylpiperazin-2-yl)methyl](6-(2-cyanophenyl)-2-{[2-(3-fluorophenyl)ethyl]amino}(3-pyridyl))carboxamide], for which the IC50 stood at 7.44 µM. `CC(=O)N1CCC[C@@H]1CNC(=O)c1ccc(-c2ccccc2C#N)nc1NCCc1cccc(F)c1` [N-[((2R)-1-acetylpyrrolidin-2-yl)methyl](6-(2-cyanophenyl)-2-{[2-(3-fluorophenyl)ethyl]amino}(3-pyridyl))carboxamide]: the half-inhibitory concentration (IC50) is 0.119 µM. On to `CN1CCCC[C@@H]1CNC(=O)c1ccc(-c2ccccc2C#N)nc1NCCc1cccc(F)c1` [N-[((2R)-1-methyl(2-piperidyl))methyl](6-(2-cyanophenyl)-2-{[2-(3-fluorophenyl)ethyl]amino}(3-pyridyl))carboxamide], for which the half-maximal inhibitory concentration (IC50) was 0.488 µM. As for `CN1CCNC[C@@H]1CNC(=O)c1ccc(-c2ccccc2C#N)nc1NCCc1cccc(F)c1` [N-[((2R)-1-methylpiperazin-2-yl)methyl](6-(2-cyanophenyl)-2-{[2-(3-fluorophenyl)ethyl]amino}(3-pyridyl))carboxamide], the 50% inhibitory concentration (IC50) was 15.7 µM. As to `CN1CCC[C@@H]1CNC(=O)c1ccc(-c2ccccc2C#N)nc1NCCc1cccc(F)c1` [N-[((2R)-1-methylpyrrolidin-2-yl)methyl](6-(2-cyanophenyl)-2-{[2-(3-fluorophenyl)ethyl]amino}(3-pyridyl))carboxamide], the IC50 worked out at 0.214 µM. In the case of `CC(C)(C)OC(=O)NCC(=O)N1CC[C@@H]1CNC(=O)c1ccc(-c2cn[nH]c2)nc1NCCc1cccc(F)c1` [N-[((2R)-1-{2-[(tert-butoxy)carbonylamino]acetyl}azetidin-2-yl)methyl](2-{[2-(3-fluorophenyl)ethyl]amino}-6-pyrazol-4-yl(3-pyridyl))carboxamide], the IC50 is 2.99 µM. `Cn1cc(-c2nc(NCCc3cccc(F)c3)c(C(=O)NC[C@H]3CCN3C(=O)CNC(=O)OC(C)(C)C)cc2F)cn1` [N-[((2R)-1-{2-[(tert-butoxy)carbonylamino]acetyl}azetidin-2-yl)methyl](5-fluoro-2-{[2-(3-fluorophenyl)ethyl]amino}-6-(1-methylpyrazol-4-yl)(3-pyridyl))carboxamide]: the IC50 came to 0.436 µM. In the case of `Cn1cc(-c2ccc(C(=O)NC[C@H]3CCCN3C(=O)CNC(=O)OC(C)(C)C)c(NCCc3cccc(F)c3)n2)cn1` [N-[((2R)-1-{2-[(tert-butoxy)carbonylamino]acetyl}pyrrolidin-2-yl)methyl](2-{[2-(3-fluorophenyl)ethyl]amino}-6-(1-methylpyrazol-4-yl)(3-pyridyl))carboxamide], the IC50 turned out to be 5.53 µM. In the case of `Cn1cc(-c2nc(NCCc3cccc(F)c3)c(C(=O)NC[C@H]3CCCN3C(=O)CNC(=O)OC(C)(C)C)cc2F)cn1` [N-[((2R)-1-{2-[(tert-butoxy)carbonylamino]acetyl}pyrrolidin-2-yl)methyl](5-fluoro-2-{[2-(3-fluorophenyl)ethyl]amino}-6-(1-methylpyrazol-4-yl)(3-pyridyl))carboxamide], the half-maximal inhibitory concentration (IC50) stood at 0.625 µM. `CC(C)(C)OC(=O)NCC(=O)N1CCC[C@@H]1CNC(=O)c1cc(F)c(-c2cn[nH]c2)nc1NCCc1cccc(F)c1` [N-[((2R)-1-{2-[(tert-butoxy)carbonylamino]acetyl}pyrrolidin-2-yl)methyl](5-fluoro-2-{[2-(3-fluorophenyl)ethyl]amino}-6-pyrazol-4-yl(3-pyridyl))carboxamide]: the 50% inhibitory concentration (IC50) was 1.08 µM. The figure for `CC(C)(C)OC(=O)NCC(=O)N1CCC[C@@H]1CNC(=O)c1cc(F)c(-c2ccccc2C#N)nc1NCCc1cccc(F)c1` [N-[((2R)-1-{2-[(tert-butoxy)carbonylamino]acetyl}pyrrolidin-2-yl)methyl](6-(2-cyanophenyl)-5-fluoro-2-{[2-(3-fluorophenyl)ethyl]amino}(3-pyridyl))carboxamide] is 2.79 µM. As for `CC(C)(C)OC(=O)NCCN1CCC[C@@H]1CNC(=O)c1ccc(-c2ccccc2C#N)nc1NCCc1cccc(F)c1` [N-[((2R)-1-{2-[(tert-butoxy)carbonylamino]ethyl}pyrrolidin-2-yl)methyl](6-(2-cyanophenyl)-2-{[2-(3-fluorophenyl)ethyl]amino}(3-pyridyl))carboxamide], the IC50 came to 3.69 µM.

With `Cn1cc(-c2ccc(C(=O)NC[C@H]3CCCN3C(=O)CCNC(=O)OC(C)(C)C)c(NCCc3cccc(F)c3)n2)cn1` [N-[((2R)-1-{3-[(tert-butoxy)carbonylamino]propanoyl}pyrrolidin-2-yl)methyl](2-{[2-(3-fluorophenyl)ethyl]amino}-6-(1-methylpyrazol-4-yl)(3-pyridyl))carboxamide], the half-inhibitory concentration (IC50) came to 5.03 µM.

For the molecule `Cn1cc(-c2nc(NCCc3cccc(F)c3)c(C(=O)NC[C@H]3CCCN3C(=O)CCNC(=O)OC(C)(C)C)cc2F)cn1` [N-[((2R)-1-{3-[(tert-butoxy)carbonylamino]propanoyl}pyrrolidin-2-yl)methyl](5-fluoro-2-{[2-(3-fluorophenyl)ethyl]amino}-6-(1-methylpyrazol-4-yl)(3-pyridyl))carboxamide], the half-maximal inhibitory concentration (IC50) is 0.505 µM.

As for `CC(C)(C)OC(=O)NCCC(=O)N1CCC[C@@H]1CNC(=O)c1cc(F)c(-c2cn[nH]c2)nc1NCCc1cccc(F)c1` [N-[((2R)-1-{3-[(tert-butoxy)carbonylamino]propanoyl}pyrrolidin-2-yl)methyl](5-fluoro-2-{[2-(3-fluorophenyl)ethyl]amino}-6-pyrazol-4-yl(3-pyridyl))carboxamide], the IC50 turned out to be 0.98 µM. On to `CC(C)(C)OC(=O)NCCC(=O)N1CCC[C@@H]1CNC(=O)c1cc(F)c(-c2ccccc2C#N)nc1NCCc1cccc(F)c1` [N-[((2R)-1-{3-[(tert-butoxy)carbonylamino]propanoyl}pyrrolidin-2-yl)methyl](6-(2-cyanophenyl)-5-fluoro-2-{[2-(3-fluorophenyl)ethyl]amino}(3-pyridyl))carboxamide], for which the IC50 was found to be 2.77 µM. Turning to `Cc1cc(C(=O)NC[C@H]2CCC(=O)N2CCCNC(=O)OC(C)(C)C)c(NCCc2cccc(F)c2)nc1-c1cnn(C)c1` [N-[((2R)-1-{3-[(tert-butoxy)carbonylamino]propyl}-5-oxopyrrolidin-2-yl)methyl](2-{[2-(3-fluorophenyl)ethyl]amino}-5-methyl-6-(1-methylpyrazol-4-yl)(3-pyridyl))carboxamide], the concentration for half-maximal inhibition (IC50) was 1.46 µM. With `Cn1cc(-c2ccc(C(=O)NC[C@H]3CCC(=O)N3CCCNC(=O)OC(C)(C)C)c(NCCc3cccc(F)c3)n2)cn1` [N-[((2R)-1-{3-[(tert-butoxy)carbonylamino]propyl}-5-oxopyrrolidin-2-yl)methyl](2-{[2-(3-fluorophenyl)ethyl]amino}-6-(1-methylpyrazol-4-yl)(3-pyridyl))carboxamide], the half-inhibitory concentration (IC50) was found to be 1.34 µM. The figure for `Cn1cc(-c2nc(NCCc3cccc(F)c3)c(C(=O)NC[C@H]3CCC(=O)N3CCCNC(=O)OC(C)(C)C)cc2Cl)cn1` [N-[((2R)-1-{3-[(tert-butoxy)carbonylamino]propyl}-5-oxopyrrolidin-2-yl)methyl](5-chloro-2-{[2-(3-fluorophenyl)ethyl]amino}-6-(1-methylpyrazol-4-yl)(3-pyridyl))carboxamide] is 0.443 µM.
